Results taken from patent US9833497B2, “Human originated EGF domain proteins and use of the same” (CHENGDU SOURCEBIO LIMITED-LIABILITY COMPANY, priority 2013, dated 2017).

Key:
Format in all cases: cell-based
Klebsiella pneumonia = experiment: MIC against Gram-negative bacteria: Klebsiella pneumonia; conditions: 5×10^5 CFU/mL
Procedure, shortened: (§1)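 Antibacterial activity of purified human EGF domain proteins: two-fold concentration series, triplicate wells, LB broth, 5×10^5 CFU/mL bacteria, 37° C shaking incubation. The lowest concentration without growth defines the MIC.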

Proteus mirabilis = experiment: MIC against Gram-negative bacteria: Proteus mirabilis; conditions: 5×10^5 CFU/mL
Procedure, shortened: as §1

Aeromonas hydrophila = experiment: MIC against Gram-negative bacteria: Aeromonas hydrophila; conditions: 5×10^5 CFU/mL
Procedure, shortened: as §1

E. coli BL21 = experiment: MIC against Gram-negative bacteria: E. coli BL21; conditions: 5×10^5 CFU/mL
Procedure, shortened: as §1

Enterobacter cloacae = experiment: MIC against Gram-negative bacteria: Enterobacter cloacae; conditions: 5×10^5 CFU/mL
Procedure, shortened: as §1

Proteus vulgaris = experiment: MIC against Gram-negative bacteria: Proteus vulgaris; conditions: 5×10^5 CFU/mL
Procedure, shortened: as §1

Pseudomonas aeruginosa = experiment: MIC against Gram-negative bacteria: Pseudomonas aeruginosa; conditions: 5×10^5 CFU/mL
Procedure, shortened: as §1

E. coli DH5α = experiment: Antibacterial activity: MIC and growth curve against E. coli DH5α in 96-well plate; conditions: minimal inhibitory concentration against E. coli DH5α; 96-well plate, 5×10^5 CFU/mL, 37° C., judged after 8 h
Procedure, shortened: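 Log-phase DH5α (OD600 about 0.5, 37° C, 185 rpm in LB) was pelleted, resuspended in fresh LB and seeded at 5×10^5 CFU/mL with recombinant protein at 50, 25 and 12.5 μg/mL (two-fold series), in triplicate. Plates were shaken at 175 rpm, 37° C, and OD600 was read every 30 min. MIC was the lowest concentration with no growth.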

Serratia marcescens = experiment: MIC against Gram-negative bacteria: Serratia marcescens; conditions: 5×10^5 CFU/mL
Procedure, shortened: as §1

Citrobacter diversus = experiment: MIC against Gram-negative bacteria: Citrobacter diversus; conditions: 5×10^5 CFU/mL
Procedure, shortened: as §1

Moraxella catarrhalis = experiment: MIC against Gram-negative bacteria: Moraxella catarrhalis; conditions: 5×10^5 CFU/mL
Procedure, shortened: as §1

[1] = K. pneumonia, 10 h cultivation at 37° C.
[2] = P. mirabilis, 10 h cultivation at 37° C.
[3] = A. hydrophila, 10 h cultivation at 37° C.
[4] = E. coli BL21, 10 h cultivation at 37° C.
[5] = E. cloacae, 10 h cultivation at 37° C.
[6] = P. vulgaris, 10 h cultivation at 37° C.
[7] = P. aeruginosa, 10 h cultivation at 37° C.
[8] = S. marcescens, 10 h cultivation at 37° C.
[9] = C. diversus, 10 h cultivation at 37° C.
[10] = M. catarrhalis, 10 h cultivation at 37° C.
[11] = Klebsiella pneumonia, 96-well plate, 37° C., 10 h
[12] = Proteus mirabilis, 96-well plate, 37° C., 10 h
[13] = Aeromonas hydrophila, 96-well plate, 37° C., 10 h
[14] = E. coli BL21, 96-well plate, 37° C., 10 h
[15] = Enterobacter cloacae, 96-well plate, 37° C., 10 h
[16] = Proteus vulgaris, 96-well plate, 37° C., 10 h
[17] = Pseudomonas aeruginosa, 96-well plate, 37° C., 10 h
[18] = Serratia marcescens, 96-well plate, 37° C., 10 h
[19] = Citrobacter diversus, 96-well plate, 37° C., 10 h
[20] = Moraxella catarrhalis, 96-well plate, 37° C., 10 h
[21] = 10 h cultivation at 37° C., two-fold serial dilution

Substance: PRT442 (DINECEQVPKPCAHQCSNTPGSFKCICPPGQHLLGDGKSCA; listed as Homo sapiens)
- MIC (Klebsiella pneumonia; [1]): 12.5 µg/mL
- MIC (Proteus mirabilis; [2]): 12.5 µg/mL
- MIC (Aeromonas hydrophila; [3]): 50 µg/mL
- MIC (E. coli BL21; [4]): 50 µg/mL
- MIC (Enterobacter cloacae; [5]): 25 µg/mL
- MIC (Proteus vulgaris; [6]): 12.5 µg/mL
- MIC (Pseudomonas aeruginosa; [7]): 25 µg/mL
- MIC (E. coli DH5α): 12.5 µg/mL
- MIC (Serratia marcescens; [8]): 25 µg/mL
- MIC (Citrobacter diversus; [9]): 25 µg/mL
- MIC (Moraxella catarrhalis; [10]): 12.5 µg/mL

Substance: PRT69 (RRNFCDGRRCQNGGTCVNRWNMYLCECPLRFGGKNCE; listed as Homo sapiens)
- MIC (μg/mL) K. pneumonia (Klebsiella pneumonia; [11]): 12.5 µg/mL
- MIC (μg/mL) P. mirabilis (Proteus mirabilis; [12]): 12.5 µg/mL
- MIC (μg/mL) A. hydrophila (Aeromonas hydrophila; [13]): 12.5 µg/mL
- MIC (μg/mL) E. coli BL21 (E. coli BL21; [14]): 12.5 µg/mL
- MIC (μg/mL) E. cloacae (Enterobacter cloacae; [15]): 25 µg/mL
- MIC (μg/mL) P. vulgaris (Proteus vulgaris; [16]): 12.5 µg/mL
- MIC (μg/mL) P. aeruginosa (Pseudomonas aeruginosa; [17]): 25 µg/mL
- MIC (E. coli DH5α): 12.5 µg/mL
- MIC (μg/mL) S. marcescens (Serratia marcescens; [18]): 12.5 µg/mL
- MIC (μg/mL) C. diversus (Citrobacter diversus; [19]): 25 µg/mL
- MIC (μg/mL) M. catarrhalis (Moraxella catarrhalis; [20]): 12.5 µg/mL

Substance: PRT142 (PCPGRYLRAGKCAELPNCLDDLGGFACECATGFELGKDGRSCV; listed as Homo sapiens)
- MIC (μg/mL) K. pneumonia (Klebsiella pneumonia; [11]): 12.5 µg/mL
- MIC (μg/mL) P. mirabilis (Proteus mirabilis; [12]): 12.5 µg/mL
- MIC (μg/mL) A. hydrophila (Aeromonas hydrophila; [13]): 25 µg/mL
- MIC (μg/mL) E. coli BL21 (E. coli BL21; [14]): 12.5 µg/mL
- MIC (μg/mL) E. cloacae (Enterobacter cloacae; [15]): 25 µg/mL
- MIC (μg/mL) P. vulgaris (Proteus vulgaris; [16]): 25 µg/mL
- MIC (μg/mL) P. aeruginosa (Pseudomonas aeruginosa; [17]): 25 µg/mL
- MIC (E. coli DH5α): 12.5 µg/mL
- MIC (μg/mL) S. marcescens (Serratia marcescens; [18]): 12.5 µg/mL
- MIC (μg/mL) C. diversus (Citrobacter diversus; [19]): 12.5 µg/mL
- MIC (μg/mL) M. catarrhalis (Moraxella catarrhalis; [20]): 25 µg/mL

Substance: PRT709 (SCQLCDGYCYNGGTCQLDPETNVPVCLCSTNWSGTQCE; listed as Homo sapiens)
- MIC K. pneumonia (Klebsiella pneumonia; 96-well plate, 37° C., 10 h): 25 µg/mL
- MIC P. mirabilis (Proteus mirabilis; 96-well plate, 37° C., 10 h): 25 µg/mL
- MIC A. hydrophila (Aeromonas hydrophila; 96-well plate, 37° C., 10 h): 50 µg/mL
- MIC E. coli BL21 (E. coli BL21; 96-well plate, 37° C., 10 h): 12.5 µg/mL
- MIC E. cloacae (Enterobacter cloacae; 96-well plate, 37° C., 10 h): 12.5 µg/mL
- MIC P. vulgaris (Proteus vulgaris; 96-well plate, 37° C., 10 h): 12.5 µg/mL
- MIC P. aeruginosa (Pseudomonas aeruginosa; 96-well plate, 37° C., 10 h): 50 µg/mL
- MIC (E. coli DH5α): 50 µg/mL
- MIC S. marcescens (Serratia marcescens; 96-well plate, 37° C., 10 h): 50 µg/mL
- MIC C. diversus (Citrobacter diversus; 96-well plate, 37° C., 10 h): 12.5 µg/mL
- MIC M. catarrhalis (Moraxella catarrhalis; 96-well plate, 37° C., 10 h): 50 µg/mL

Substance: PRT1170 (RNSSCLPNPCHNGGTCVVNGESFTCVCKEGWEGPICA; listed as Homo sapiens)
- MIC K. pneumonia (Klebsiella pneumonia; [21]): 12.5 µg/mL
- MIC P. mirabilis (Proteus mirabilis; [21]): 12.5 µg/mL
- MIC A. hydrophila (Aeromonas hydrophila; [21]): 50 µg/mL
- MIC E. coli BL21 (E. coli BL21; [21]): 12.5 µg/mL
- MIC E. cloacae (Enterobacter cloacae; [21]): 100 µg/mL
- MIC P. vulgaris (Proteus vulgaris; [21]): 12.5 µg/mL
- MIC P. aeruginosa (Pseudomonas aeruginosa; [21]): 25 µg/mL
- MIC (E. coli DH5α): 25 µg/mL
- MIC S. marcescens (Serratia marcescens; [21]): 25 µg/mL
- MIC C. diversus (Citrobacter diversus; [21]): 12.5 µg/mL
- MIC M. catarrhalis (Moraxella catarrhalis; [21]): 50 µg/mL

Substance: PRT1478 (GGSPCISQPCLHNGSCQDSIWGYTCTCSPGYEGSNCE; listed as Homo sapiens)
- MIC against K. pneumonia (Klebsiella pneumonia; Klebsiella pneumonia, 10 h cultivation at 37° C.): 25 µg/mL
- MIC against P. mirabilis (Proteus mirabilis; Proteus mirabilis, 10 h cultivation at 37° C.): 50 µg/mL
- MIC against A. hydrophila (Aeromonas hydrophila; Aeromonas hydrophila, 10 h cultivation at 37° C.): 50 µg/mL
- MIC against E. coli BL21 (E. coli BL21; [4]): 12.5 µg/mL
- MIC against E. cloacae (Enterobacter cloacae; Enterobacter cloacae, 10 h cultivation at 37° C.): 12.5 µg/mL
- MIC against P. vulgaris (Proteus vulgaris; Proteus vulgaris, 10 h cultivation at 37° C.): 25 µg/mL
- MIC against P. aeruginosa (Pseudomonas aeruginosa; Pseudomonas aeruginosa, 10 h cultivation at 37° C.): 50 µg/mL
- MIC (E. coli DH5α): 50 µg/mL
- MIC against S. marcescens (Serratia marcescens; Serratia marcescens, 10 h cultivation at 37° C.): 12.5 µg/mL
- MIC against C. diversus (Citrobacter diversus; Citrobacter diversus, 10 h cultivation at 37° C.): 12.5 µg/mL
- MIC against M. catarrhalis (Moraxella catarrhalis; Moraxella catarrhalis, 10 h cultivation at 37° C.): 25 µg/mL

Substance: PRT178 (SGVTCADGPCFNGGLCVGGADPDSAYICHCPPGFQGSNCE; listed as Homo sapiens)
- MIC (μg/mL) K. pneumonia (Klebsiella pneumonia; [1]): 12.5 µg/mL
- MIC (μg/mL) P. mirabilis (Proteus mirabilis; [2]): 50 µg/mL
- MIC (μg/mL) A. hydrophila (Aeromonas hydrophila; [3]): 12.5 µg/mL
- MIC (μg/mL) E. coli BL21 (E. coli BL21; [4]): 50 µg/mL
- MIC (μg/mL) E. cloacae (Enterobacter cloacae; [5]): 50 µg/mL
- MIC (μg/mL) P. vulgaris (Proteus vulgaris; [6]): 12.5 µg/mL
- MIC (μg/mL) P. aeruginosa (Pseudomonas aeruginosa; [7]): 25 µg/mL
- MIC (E. coli DH5α): 25 µg/mL
- MIC (μg/mL) S. marcescens (Serratia marcescens; [8]): 25 µg/mL
- MIC (μg/mL) C. diversus (Citrobacter diversus; [9]): 50 µg/mL
- MIC (μg/mL) M. catarrhalis (Moraxella catarrhalis; [10]): 12.5 µg/mL

Substance: PRT869 (CKCNLHATVCVYDNSKLTCECEHNTTGPDCGKCKKNYQGRPWSPGSYLPIPKGTANTCIP; listed as Homo sapiens)
- MIC (μg/mL) K. pneumonia (Klebsiella pneumonia; [1]): 12.5 µg/mL
- MIC (μg/mL) P. mirabilis (Proteus mirabilis; [2]): 12.5 µg/mL
- MIC (μg/mL) A. hydrophila (Aeromonas hydrophila; [3]): 12.5 µg/mL
- MIC (μg/mL) E. coli BL21 (E. coli BL21; [4]): 25 µg/mL
- MIC (μg/mL) E. cloacae (Enterobacter cloacae; [5]): 12.5 µg/mL
- MIC (μg/mL) P. vulgaris (Proteus vulgaris; [6]): 12.5 µg/mL
- MIC (μg/mL) P. aeruginosa (Pseudomonas aeruginosa; [7]): 12.5 µg/mL
- MIC (E. coli DH5α): 12.5 µg/mL
- MIC (μg/mL) S. marcescens (Serratia marcescens; [8]): 50 µg/mL
- MIC (μg/mL) C. diversus (Citrobacter diversus; [9]): 12.5 µg/mL
- MIC (μg/mL) M. catarrhalis (Moraxella catarrhalis; [10]): 12.5 µg/mL

Substance: PRT808 (YGPNCSSICSCNNGGTCSPVDGSCTCKEGWQGLDCT; listed as Homo sapiens)
- MIC (μg/mL) K. pneumonia (Klebsiella pneumonia; [1]): 50 µg/mL
- MIC (μg/mL) P. mirabilis (Proteus mirabilis; [2]): 25 µg/mL
- MIC (μg/mL) A. hydrophila (Aeromonas hydrophila; [3]): 12.5 µg/mL
- MIC (μg/mL) E. coli BL21 (E. coli BL21; [4]): 50 µg/mL
- MIC (μg/mL) E. cloacae (Enterobacter cloacae; [5]): 25 µg/mL
- MIC (μg/mL) P. vulgaris (Proteus vulgaris; [6]): 12.5 µg/mL
- MIC (μg/mL) P. aeruginosa (Pseudomonas aeruginosa; [7]): 12.5 µg/mL
- MIC (E. coli DH5α): 25 µg/mL
- MIC (μg/mL) S. marcescens (Serratia marcescens; [8]): 50 µg/mL
- MIC (μg/mL) C. diversus (Citrobacter diversus; [9]): 25 µg/mL
- MIC (μg/mL) M. catarrhalis (Moraxella catarrhalis; [10]): 50 µg/mL

Substance: PRT1246 (CKELCSCHPHGQCEDVTGQCTCHARRWGARCE; listed as Homo sapiens)
- MIC against K. pneumonia (Klebsiella pneumonia; [11]): 25 µg/mL
- MIC against P. mirabilis (Proteus mirabilis; [12]): 50 µg/mL
- MIC against A. hydrophila (Aeromonas hydrophila; [13]): 25 µg/mL
- MIC against E. coli BL21 (E. coli BL21; [14]): 25 µg/mL
- MIC against E. cloacae (Enterobacter cloacae; [15]): 50 µg/mL
- MIC against P. vulgaris (Proteus vulgaris; [16]): 25 µg/mL
- MIC against P. aeruginosa (Pseudomonas aeruginosa; [17]): 12.5 µg/mL
- MIC (E. coli DH5α): 50 µg/mL
- MIC against S. marcescens (Serratia marcescens; [18]): 12.5 µg/mL
- MIC against C. diversus (Citrobacter diversus; [19]): 12.5 µg/mL
- MIC against M. catarrhalis (Moraxella catarrhalis; [20]): 25 µg/mL
